According to US20030082135A1, “Pathway of RANTES-mediated chemokine synthesis in astrocytes and methods of use therefor” (priority 2001, published 2003):

Test system: MEK, ERK1/2, p90RSK, p38, SAPK/JNK phosphorylation in astrocytes
Assay: Western blotting of phosphorylated MAP kinase pathway proteins in astrocyte lysates
Type: cell-based, mouse
Procedure: SDS-PAGE and Western blotting. Astrocytes were treated for the indicated time with media or 100 ng/ml RANTES, eotaxin, or other materials as indicated. Cells (3×10^5 in Examples 1-3, or 2×10^4 in later Examples) were resuspended in 100 μl buffer (50 mM HEPES, pH 7.5, 150 mM NaCl, 2 mM EDTA, 2 mM EGTA, 1% Triton X-100, 50 mM Sodium fluoride, 5 mM Sodium pyrophosphate, 50 mM Sodium β-glycerophosphate, 1 mM Sodium Ortho-vanadate, 1 mM DTT, 1 mM PMSF, 10 μg/ml Leupeptin, and 10 μg/ml Aprotinin). Protein concentration of the whole cell extract was determined by BCA protein assay kit (Pierce, Rockford, Ill.). Samples (10 μg) were loaded and separated on a 10% SDS-polyacrylamide gel. After transfer to Hybond ECL nitrocellulose membrane (Amersham Pharmacia Biotech Inc, Piscataway, N.J.) or Zeta-probe blotting membranes (Bio-Rad, Richmond Calif.) blots were blocked overnight with 5% BSA at 4° C., and probed with the antibody indicated. Antibody against unphosphorylated or phosphorylated erk (Cell Signaling, Beverly, Mass.) was used at 1 μg/ml. Appropriate anti-immunoglobulin reagents were used to develop the blots by enhanced chemiluminescence (Amersham Pharmacia Biotech Inc, Piscataway, N.J.).
Little is known about the signaling mechanisms involved in astrocyte respones to chemokines. To examine components of the RANTES signal transduction pathway, phosphorylation of the MAP kinase kinase (MEK) and mitogen activated protein (MAP) kinases was examined. To minimize basal kinase activity, astrocytes were starved of serum for at least 3 h before treatment with chemokine. Whole cell lysates were separated by SDS-PAGE and examined by Western blot. Antibodies that specifically react with phosphorylated MEK or phosphorylated extracellular signal-related kinase (ERK) were used to detect the active kinases.

RANTES
duration of phosphorylation of MEK, ERK1 and ERK2 (100 ng/ml RANTES): over 2 h
duration of phosphorylation of RSK (100 ng/ml RANTES): over 2 h
phosphorylation state of Raf-1 Ser 259 (100 ng/ml RANTES): dephosphorylation
time of appearance of phosphorylation of MEK, ERK1 and ERK2 (100 ng/ml RANTES): ≤ 5 min
time of peak phosphorylation of MEK, ERK1 and ERK2 (100 ng/ml RANTES): 20 to 60 min
time of peak phosphorylation of RSK (100 ng/ml RANTES): 60 min
time of appearance of phosphorylation of RSK (100 ng/ml RANTES, Ser381, Thr360/Ser364, Thr574): ≤ 5 min
phosphorylation of p38 or SAPK/JNK (100 ng/ml, 20 min, 5 to 120 min): failed to phosphorylate
